According to patent publication US6737383B1, “Herbicidal oxadiazolidines” (priority 1999, dated 2004):

What was measured:
[1] = system: cocklebur; test: Test B pre/postemergence cocklebur; format: in vivo, Xanthium strumarium
Summary of the method: (§1)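 Herbicidal effect was estimated by eye on a ten-point control scale after plants spent twelve to sixteen days in a greenhouse following soil or foliar treatment. Foliar sprays targeted plants at one to four leaves; all doses were formulated in a non-phytotoxic solvent with surfactant.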

[2] = system: corn; test: Test B pre/postemergence corn; format: in vivo, Zea mays
Summary of the method: as §1

[3] = system: crabgrass; test: Test B pre/postemergence crabgrass; format: in vivo, Digitaria sanguinalis
Summary of the method: as §1

[4] = system: giant foxtail; test: Test B pre/postemergence giant foxtail; format: in vivo, Setaria faberii
Summary of the method: as §1

[5] = system: morningglory; test: Test B pre/postemergence morningglory; format: in vivo, Ipomoea hederacea; conditions: for Plant response rating, Morningglory: scale of 0 to 10 where 0 is no effect and 10 is complete control
Summary of the method: as §1

[6] = system: pigweed; test: Test B pre/postemergence pigweed; format: in vivo, Amaranthus retroflexus; conditions: for Plant response rating, Redroot pigweed: scale of 0 to 10 where 0 is no effect and 10 is complete control
Summary of the method: as §1

[7] = system: rape; test: Test B pre/postemergence rape; format: in vivo, Brassica napus; conditions: for Plant response rating, Rape: scale of 0 to 10 where 0 is no effect and 10 is complete control
Summary of the method: as §1

[8] = system: soybean; test: Test B pre/postemergence soybean; format: in vivo, Glycine max; conditions: for Plant response rating, Soybean: scale of 0 to 10 where 0 is no effect and 10 is complete control
Summary of the method: as §1

[9] = system: sugar beet; test: Test B pre/postemergence sugar beet; format: in vivo, Beta vulgaris; conditions: for Plant response rating, Sugarbeets: scale of 0 to 10 where 0 is no effect and 10 is complete control
Summary of the method: as §1

[10] = system: velvetleaf; test: Test B pre/postemergence velvetleaf; format: in vivo, Abutilon theophrasti; conditions: for Plant response rating, Velvetleaf: scale of 0 to 10 where 0 is no effect and 10 is complete control
Summary of the method: as §1

[11] = system: wheat; test: Test B pre/postemergence wheat; format: in vivo, Triticum aestivum; conditions: for Plant response rating, Wheat: scale of 0 to 10 where 0 is no effect and 10 is complete control
Summary of the method: as §1

[12] = system: wild oat; test: Test B pre/postemergence wild oat; format: in vivo, Avena fatua; conditions: for Plant response rating, Wild oats: scale of 0 to 10 where 0 is no effect and 10 is complete control
Summary of the method: as §1

[13] = system: purple nutsedge; test: Test B pre/postemergence purple nutsedge; format: in vivo, Cyperus rotundus; conditions: for Plant response rating, Nutsedge: scale of 0 to 10 where 0 is no effect and 10 is complete control
Summary of the method: as §1

[14] = system: rice; test: Test B flood test rice; format: in vivo, Oryza sativa
Summary of the method: (§2)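 Plants were grown to the 2-leaf stage before treatment with test chemical, then held in a greenhouse for twelve to sixteen days. Injury was visually rated against untreated controls on a 0–10 scale, where 0 is no effect and 10 is complete control.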

[15] = system: duck salad; test: Test B flood test duck salad; format: in vivo, Heteranthera limosa
Summary of the method: as §2

[16] = system: bamyardgrass; test: Test B flood test barnyardgrass; format: in vivo, Echinochloa crus-galli
Summary of the method: as §2

[17] = Postemergence, Rate 250 g/ha, scale 0 to 10
[18] = Postemergence, Rate 500 g/ha, scale of 0 to 10 where 0 is no effect and 10 is complete control
[19] = Preemergence, Rate 62 g/ha, scale of 0 to 10 where 0 is no effect and 10 is complete control
[20] = Preemergence, Rate 125 g/ha, scale of 0 to 10 where 0 is no effect and 10 is complete control
[21] = Preemergence, Rate 250 g/ha, scale 0 to 10, 0 is no effect, 10 is complete control
[22] = Preemergence, Rate 500 g/ha, scale 0 to 10, 0 is no effect, 10 is complete control
[23] = Rate 62 g/ha, Postemergence, scale 0 to 10 (0 no effect, 10 complete control)
[24] = Rate 125 g/ha, Postemergence, scale 0 to 10, 0 is no effect, 10 is complete control
[25] = Rate 62 g/ha, flood test species, Pre-emergence, visual evaluation after twelve to sixteen days
[26] = Rate 125 g/ha, under heading Pre-emergence, flood test species, visual evaluation after twelve to sixteen days
[27] = Rate 250 g/ha, Pre-emergence (flood test species), scale 0 to 10, 0 is no effect, 10 is complete control
[28] = Rate 500 g/ha, Pre-emergence, flood test species, scale 0 to 10 (0 no effect, 10 complete control)

CC(C)N(C(=O)n1oc(=O)n(CCCl)c1=O)c1ccc(Cl)cc1 [Compound 474]
5: Crabgrass plant response rating [3, 24] | Redroot pigweed plant response rating [6, 21]
1: Morningglory plant response rating [5, 17] | Morningglory plant response rating [5, 23] | Morningglory plant response rating [5, 24] | Plant response rating, Redroot pigweed ([6]; Preemergence, Rate 62 g/ha) | Redroot pigweed plant response rating [6, 24]
3: Giant foxtail plant response rating [4, 23] | Plant response rating, Redroot pigweed ([6]; Preemergence, Rate 125 g/ha) | Soybean plant response rating [8, 23] | Sugarbeets plant response rating [9, 22] | Plant response rating, Wild oats ([12]; Preemergence, Rate 125 g/ha)
6: Crabgrass plant response rating [3, 17] | Plant response rating, Crabgrass [3, 19] | Giant foxtail plant response rating [4, 24]
8: Giant foxtail plant response rating [4, 18] | Wild oats plant response rating [12, 22]
10: Crabgrass plant response rating [3, 22] | Plant response rating, Giant foxtail [4, 20] | Giant foxtail plant response rating [4, 21] | Giant foxtail plant response rating [4, 22]
2: Crabgrass plant response rating [3, 23] | Redroot pigweed plant response rating [6, 17] | Rape plant response rating [7, 21]
4: Cocklebur plant response rating [1, 18] | Corn plant response rating [2, 22] | Rape plant response rating [7, 22] | Soybean plant response rating [8, 17] | Soybean plant response rating [8, 24] | Wild oats plant response rating [12, 21]
0: Cocklebur plant response rating [1, 17] | Plant response rating, Cocklebur [1, 19] | Plant response rating, Cocklebur [1, 20] | Cocklebur plant response rating [1, 21] | Cocklebur plant response rating [1, 22] | Cocklebur plant response rating [1, 23] | Cocklebur plant response rating [1, 24] | Corn plant response rating [2, 17] | Corn plant response rating [2, 18] | Plant response rating, Corn [2, 19] | Plant response rating, Corn [2, 20] | Corn plant response rating [2, 21] | Corn plant response rating [2, 23] | Corn plant response rating [2, 24] | Plant response rating, Morningglory ([5]; Preemergence, Rate 62 g/ha) | Plant response rating, Morningglory ([5]; Preemergence, Rate 125 g/ha) | Morningglory plant response rating [5, 21] | Morningglory plant response rating [5, 22] | Redroot pigweed plant response rating [6, 23] | Rape plant response rating [7, 17] | Plant response rating, Rape ([7]; Preemergence, Rate 62 g/ha) | Plant response rating, Rape ([7]; Preemergence, Rate 125 g/ha) | Rape plant response rating [7, 23] | Rape plant response rating [7, 24] | Plant response rating, Soybean ([8]; Preemergence, Rate 62 g/ha) | Plant response rating, Soybean ([8]; Preemergence, Rate 125 g/ha) | Soybean plant response rating [8, 21] | Soybean plant response rating [8, 22] | Sugarbeets plant response rating [9, 17] | Plant response rating, Sugarbeets ([9]; Preemergence, Rate 62 g/ha) | Plant response rating, Sugarbeets ([9]; Preemergence, Rate 125 g/ha) | Sugarbeets plant response rating [9, 21] | Sugarbeets plant response rating [9, 23] | Sugarbeets plant response rating [9, 24] | Velvetleaf plant response rating [10, 17] | Plant response rating, Velvetleaf ([10]; Preemergence, Rate 62 g/ha) | Plant response rating, Velvetleaf ([10]; Preemergence, Rate 125 g/ha) | Velvetleaf plant response rating [10, 21] | Velvetleaf plant response rating [10, 22] | Velvetleaf plant response rating [10, 23] | Velvetleaf plant response rating [10, 24] | Wheat plant response rating [11, 17] | Plant response rating, Wheat ([11]; Preemergence, Rate 62 g/ha) | Plant response rating, Wheat ([11]; Preemergence, Rate 125 g/ha) | Wheat plant response rating [11, 21] | Wheat plant response rating [11, 22] | Wheat plant response rating [11, 23] | Wheat plant response rating [11, 24] | Wild oats plant response rating [12, 17] | Plant response rating, Wild oats ([12]; Preemergence, Rate 62 g/ha) | Wild oats plant response rating [12, 23] | Wild oats plant response rating [12, 24] | Nutsedge plant response rating [13, 17] | Plant response rating, Nutsedge ([13]; Preemergence, Rate 62 g/ha) | Plant response rating, Nutsedge ([13]; Preemergence, Rate 125 g/ha) | Nutsedge plant response rating [13, 21] | Nutsedge plant response rating [13, 22] | Nutsedge plant response rating [13, 23] | Nutsedge plant response rating [13, 24] | Plant response rating, Rice (0 to 10 scale, 0 is no effect, 10 is complete control) [14, 25] | Rice plant response rating (0 to 10 scale, 0 is no effect, 10 is complete control) [14, 26] | Rice plant response rating [14, 27] | Rice plant response rating [14, 28] | Plant response rating, Ducksalad (0 to 10 scale, 0 is no effect, 10 is complete control) [15, 25] | Ducksalad plant response rating (0 to 10 scale, 0 is no effect, 10 is complete control) [15, 26] | Ducksalad plant response rating [15, 27] | Ducksalad plant response rating [15, 28] | Plant response rating, Barnyardgrass (0 to 10 scale, 0 is no effect, 10 is complete control) [16, 25] | Barnyardgrass plant response rating (0 to 10 scale, 0 is no effect, 10 is complete control) [16, 26] | Barnyardgrass plant response rating [16, 27] | Barnyardgrass plant response rating [16, 28]
7: Giant foxtail plant response rating [4, 17] | Plant response rating, Giant foxtail [4, 19] | Redroot pigweed plant response rating [6, 22]
9: Crabgrass plant response rating [3, 18] | Plant response rating, Crabgrass [3, 20] | Crabgrass plant response rating [3, 21]
